From the NIST ThermoML archive (doi:10.1016/j.jct.2010.11.013) come the findings set out here.

Numbers after ± are expanded uncertainties.

The nature of data set [1]: refractive index (Na D-line) (dimensionless). Particulars: 298.15 K; 101.33 kPa; Liquid; Standard Abbe refractometry.
The conditions of data set [2]: 298.15 K; 101.33 kPa; Liquid; Vibrating tube method.

As for `CCOS(=O)(=O)[O-].CCn1cc[n+](C)c1` [1-ethyl-3-methylimidazolium ethyl sulfate], the refractive index in data set [1] worked out at 1.4791 ± 0.0007. Besides, the mass density in data set [2] is 1237.23 ± 0.43 kg/m3.
Taken in the same sequence, the figures for `CCCCCCC` [heptane] were 1.38515 ± 0.00068 and 679.56 ± 0.19 kg/m3.
The matching figures for `CCCCCC` [hexane]: 1.37234 ± 0.0007 and 655.19 ± 0.26 kg/m3.
Consider `CCCCCCCCC` [nonane], for which the refractive index in data set [1] is reported as 1.40326 ± 0.0007. The mass density in data set [2] is listed as 713.99 ± 0.25 kg/m3.
Taken in the same sequence, the figures for `CCCCCCCC` [octane] were 1.39519 ± 0.00068 and 698.6 ± 0.18 kg/m3.
Turning to `Cc1ccccc1` [toluene], the refractive index in data set [1] was 1.49399 ± 0.00068. The mass density in data set [2] was 862.17 ± 0.11 kg/m3.

As a reminder, the refractive index is a measure of how strongly the sample bends light. For orientation: mass density means mass per unit of volume.
